Source: ChEMBL document CHEMBL1201862, “PubChem BioAssay data set” (2004)
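Following 48 hours of exposure in 96-well plates, responses at five concentrations were used to interpolate endpoints linearly. The concentration for 50% growth inhibition is given as GI50.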 Active and inactive are the calls of the source. No stated cut-off is given here; in the data, active = GI50 up to about 1.1 µM and inactive = higher.

Legend:
Assay in all cases: DTP human tumour cell line panel, 48 h
[1] = test system: OVCAR-3
[2] = test system: HCT-15
[3] = test system: SNB-19
[4] = test system: IGROV-1
[5] = test system: CAKI-1
[6] = test system: MDA-MB-231
[7] = test system: SK-MEL-28
[8] = test system: HCC 2998
[9] = test system: SK-MEL-5
[10] = test system: K562
[11] = test system: SR
[12] = test system: MOLT-4
[13] = test system: LOX IMVI
[14] = test system: TK-10
[15] = test system: T47D
[16] = test system: ACHN
[17] = test system: 786-0
[18] = test system: MDA-MB-435
[19] = test system: A498
[20] = test system: DU-145
[21] = test system: NCI-H23
[22] = test system: OVCAR-5
[23] = test system: NCI/ADR-RES
[24] = test system: OVCAR-8
[25] = test system: UO-31
[26] = test system: HL-60
[27] = test system: NCI-H460
[28] = test system: SF-268
[29] = test system: Malme-3M
[30] = test system: U-251
[31] = test system: PC-3
[32] = test system: EKVX
[33] = test system: HOP-92
[34] = test system: HT-29
[35] = test system: KM12
[36] = test system: RXF 393
[37] = test system: HCT-116
[38] = test system: SW-620
[39] = test system: SF-295
[40] = test system: OVCAR-4
[41] = test system: NCI-H226
[42] = test system: UACC-257
[43] = test system: BT-549
[44] = test system: MDA-N
[45] = test system: SN12C
[46] = test system: A549
[47] = test system: M14
[48] = test system: UACC-62
[49] = test system: NCI-H522
[50] = test system: HOP-62
[51] = test system: RPMI-8226
[52] = test system: MCF7
[53] = test system: SF-539
[54] = test system: SNB-75
[55] = test system: SK-MEL-2
[56] = test system: CCRF-CEM
[57] = test system: COLO 205
[58] = test system: SK-OV-3

For `NCc1ccc(C(=O)O)cc1` [AMINOMETHYLBENZOIC ACID], the GI50 [1] was > 100 µM (inactive), the GI50 [2] was over 100 µM and the GI50 [3] was > 100 µM (inactive). For the same compound, the GI50 [4] was > 100 µM (inactive), the GI50 [5] was > 100 µM (inactive) and the GI50 [6] was > 100 µM (inactive). For the same compound, the GI50 [7] was > 100 µM (inactive), the GI50 [8] was > 100 µM (inactive) and the GI50 [9] was > 100 µM (inactive). For the same compound, the GI50 [10] was > 100 µM (inactive), the GI50 [11] was > 100 µM (inactive) and the GI50 [12] was > 100 µM (inactive). The GI50 [13] was > 100 µM (inactive), the GI50 [14] was > 100 µM (inactive) and the GI50 [15] was > 100 µM (inactive). For the same compound, the GI50 [16] was > 100 µM (inactive), the GI50 [17] was > 100 µM (inactive) and the GI50 [18] was > 100 µM (inactive). The GI50 [19] was > 100 µM (inactive), the GI50 [20] was > 100 µM (inactive) and the GI50 [21] was > 100 µM (inactive). The GI50 [22] was > 100 µM (inactive), the GI50 [23] was > 100 µM (inactive) and the GI50 [24] was > 100 µM (inactive). For the same compound, the GI50 [25] was > 100 µM (inactive), the GI50 [26] was > 100 µM (inactive) and the GI50 [27] was > 100 µM (inactive). For the same compound, the GI50 [28] was > 100 µM (inactive), the GI50 [29] was > 100 µM (inactive) and the GI50 [30] was > 100 µM (inactive). The GI50 [31] was > 100 µM (inactive), the GI50 [32] was > 100 µM (inactive) and the GI50 [33] was > 100 µM (inactive). For the same compound, the GI50 [34] was > 100 µM (inactive), the GI50 [35] was > 100 µM (inactive) and the GI50 [36] was > 100 µM (inactive). For the same compound, the GI50 [37] was > 100 µM (inactive), the GI50 [38] was > 100 µM (inactive) and the GI50 [39] was > 100 µM (inactive). The GI50 [40] was > 100 µM (inactive), the GI50 [41] was > 100 µM (inactive) and the GI50 [42] was > 100 µM (inactive). The GI50 [43] was > 100 µM (inactive), the GI50 [44] was > 100 µM (inactive) and the GI50 [45] was > 100 µM (inactive). For the same compound, the GI50 [46] was > 100 µM (inactive), the GI50 [47] was > 100 µM (inactive) and the GI50 [48] was > 100 µM (inactive). For the same compound, the GI50 [49] was > 100 µM (inactive) and the GI50 [50] was > 100 µM (inactive).
`CC(C)(C)[C@H]1NC(=O)CN1C(=O)OCc1ccccc1` was tested, and the GI50 [2] was over 100 µM, the GI50 [3] was > 100 µM (inactive) and the GI50 [4] was > 100 µM (inactive). The GI50 [6] was 35.5 µM (inactive), the GI50 [51] was 87.7 µM (inactive) and the GI50 [7] was > 100 µM (inactive). For the same compound, the GI50 [8] was > 100 µM (inactive), the GI50 [9] was 85.9 µM (inactive) and the GI50 [10] was 66.7 µM (inactive). For the same compound, the GI50 [11] was 20 µM (inactive), the GI50 [12] was > 100 µM (inactive) and the GI50 [13] was 43.6 µM (inactive). The GI50 [14] was > 100 µM (inactive), the GI50 [15] was 60.8 µM (inactive) and the GI50 [16] was 82.2 µM (inactive). For the same compound, the GI50 [17] was > 100 µM (inactive), the GI50 [18] was > 100 µM (inactive) and the GI50 [19] was 10.7 µM (inactive). The GI50 [20] was > 100 µM (inactive), the GI50 [21] was > 100 µM (inactive) and the GI50 [52] was > 100 µM (inactive). For the same compound, the GI50 [22] was > 100 µM (inactive), the GI50 [23] was > 100 µM (inactive) and the GI50 [24] was > 100 µM (inactive). For the same compound, the GI50 [53] was > 100 µM (inactive), the GI50 [25] was 9.35 µM (inactive) and the GI50 [26] was > 100 µM (inactive). For the same compound, the GI50 [27] was > 100 µM (inactive), the GI50 [28] was 8.07 µM (inactive) and the GI50 [29] was > 100 µM (inactive). For the same compound, the GI50 [30] was 82 µM (inactive), the GI50 [31] was 36.7 µM (inactive) and the GI50 [32] was > 100 µM (inactive). The GI50 [33] was 5.12 µM (inactive), the GI50 [34] was > 100 µM (inactive) and the GI50 [35] was > 100 µM (inactive). For the same compound, the GI50 [36] was > 100 µM (inactive), the GI50 [37] was 67.3 µM (inactive) and the GI50 [38] was > 100 µM (inactive). For the same compound, the GI50 [39] was 45.6 µM (inactive), the GI50 [40] was > 100 µM (inactive) and the GI50 [41] was > 100 µM (inactive). For the same compound, the GI50 [54] was > 100 µM (inactive), the GI50 [55] was > 100 µM (inactive) and the GI50 [56] was > 100 µM (inactive). The GI50 [42] was 98.9 µM (inactive), the GI50 [43] was > 100 µM (inactive) and the GI50 [57] was > 100 µM (inactive). For the same compound, the GI50 [45] was > 100 µM (inactive), the GI50 [46] was > 100 µM (inactive) and the GI50 [47] was > 100 µM (inactive). The GI50 [48] was > 100 µM (inactive), the GI50 [49] was > 100 µM (inactive) and the GI50 [58] was > 100 µM (inactive). The GI50 [50] was > 100 µM (inactive).
